One data set concerns rVSV-EBOV GP. The experiment in a line: microbe, parasite or virus in culture. The class given is cell-based, Zaire Ebolavirus. The settings on record: Zaire ebolavirus, read-out: rVSV-EBOV IC50.
Data set [1] deals with authentic EBOV (EBOV-Zaire 1995). The experiment in a line: microbe, parasite or virus in culture. The settings on record: Zaire ebolavirus, Vero, 48 h, read-out: infectious EBOV-Z IC50. The class given is cell-based, Ebola virus.
A further data set in a line: in vitro. As to conditions: African green monkey.

Results on 33 compounds are retold here after US11459308B2 (priority 2016, dated 2022).

Each structure is given as a SMILES string.

The term IC50 denotes the concentration that gives 50% inhibition. Turning to `CC(=O)Nc1ccc(N2CCN(C)CC2)cc1NC(c1ccccc1)c1ccccc1` [MBX 3525, 2-(benzhydrylamino)-4-(4-methylpiperazin-1-yl)-1-acetamidobenzene], the IC50 with rVSV-EBOV GP was 4 µM; in data set [1], over 20 µM. This compound returned a CC50 in “in vitro” of 100 µM.
As for `CN1CCN(c2ccc(NS(C)(=O)=O)c(NC(c3ccccc3)c3ccccc3)c2)CC1` [MBX 3536A, 2-(benzhydrylamino)-4-(4-methylpiperazin-1-yl)-1-(methylsulfonamido)benzene], the values for the IC50 (in the data set with rVSV-EBOV GP; in data set [1]) were 2.9 µM and 3.1 µM, respectively. Besides, the CC50 in the data set “in vitro” worked out at 26 µM.
The matching figures for `CN1CCN(c2ccc3nnn(C(c4ccccc4)c4ccccc4)c3c2)CC1` [MBX 3537A, 1-benzhydryl-6-(4-methylpiperazin-1-yl)-benzo[d][1,2,3]triazole]: 2.3 µM, 2.3 µM and 41 µM.
For `Cc1nc2ccc(N3CCN(C)CC3)cc2n1C(c1ccccc1)c1ccccc1` [MBX 3539, 1-benzhydryl-2-methyl-6-(4-methylpiperazin-1-yl)benzo[d]imidazole], the IC50 with rVSV-EBOV GP was 14 µM; in data set [1], over 20 µM. The compound also came in with a CC50 in the data set “in vitro” of 77 µM.
For `CN1CCN(c2ccc3ncn(C(c4ccccc4)c4ccccc4)c3c2)CC1` [MBX 3540, 1-benzhydryl-6-(4-methylpiperazin-1-yl)benzo[d]imidazole], in that order: 0.8 µM, 0.9 µM and 58 µM.
`O=[N+]([O-])c1ccc(N2CCNCC2)cc1NC(c1ccccc1)c1ccccc1` [MBX 3556, 1-(benzhydrylamino)-5-(piperazin-1-yl)-2-nitrobenzene]: the results for the IC50 (in the data set with rVSV-EBOV GP; in data set [1]) were 1.4 µM and 1.1 µM, respectively. The same compound displayed a CC50 in “in vitro” of 5.2 µM.
The matching figures for `CCN1CCN(c2ccc([N+](=O)[O-])c(NC(c3ccccc3)c3ccccc3)c2)CC1` [MBX 3557, 1-(benzhydrylamino)-5-(4-ethylpiperazin-1-yl)-2-nitrobenzene]: 1.4 µM, 1.9 µM and 20 µM.
In the case of `O=[N+]([O-])c1ccc(N2CCN(Cc3ccccn3)CC2)cc1NC(c1ccccc1)c1ccccc1` [MBX 3558, 1-(benzhydrylamino)-5-[4-(pyridin-2-ylmethyl)piperazin-1-yl]-2-nitrobenzene], the IC50 came out at 4 µM with rVSV-EBOV GP and 2.8 µM in data set [1]. This compound also registered a CC50 in the data set “in vitro” of over 200 µM.
For `CCCCN1CCN(c2ccc([N+](=O)[O-])c(NC(c3ccccc3)c3ccccc3)c2)CC1` [MBX 3559, 1-(benzhydrylamino)-5-(4-butylpiperazin-1-yl)-2-nitrobenzene], in that order: 3.6 µM, 1.7 µM and over 200 µM.
The matching figures for `CC(C)N1CCN(c2ccc([N+](=O)[O-])c(NC(c3ccccc3)c3ccccc3)c2)CC1` [MBX 3561, 1-(benzhydrylamino)-5-(4-isopropylpiperazin-1-yl)-2-nitrobenzene]: 1.5 µM, 1.7 µM and 63 µM.
Turning to `O=[N+]([O-])c1ccc(N2CCN(Cc3ccncc3)CC2)cc1NC(c1ccccc1)c1ccccc1` [MBX 3562, 1-(benzhydrylamino)-5-[4-(pyridin-4-ylmethyl)piperazin-1-yl]-2-nitrobenzene], the IC50 worked out at 5.6 µM in the data set with rVSV-EBOV GP and 3.1 µM in data set [1]. This compound also gave a CC50 in the data set “in vitro” of over 200 µM.
The matching figures for `CCCN1CCN(c2ccc([N+](=O)[O-])c(NC(c3ccccc3)c3ccccc3)c2)CC1` [MBX 3566, 1-(benzhydrylamino)-5-(4-propylpiperazin-1-yl)-2-nitrobenzene]: 2.4 µM, 1.6 µM and over 200 µM.
The matching figures for `CN1CCN(c2cccc(NC(c3ccccc3)c3ccccc3)c2)CC1` [MBX 3567, 1-(benzhydrylamino)-3-(4-methylpiperazin-1-yl)benzene]: 2.5 µM, 4.1 µM and 19 µM.
Regarding `O=[N+]([O-])c1ccc(N2CCN(Cc3cccnc3)CC2)cc1NC(c1ccccc1)c1ccccc1` [MBX 3568, 1-(benzhydrylamino)-5-[4-(pyridin-3-ylmethyl)piperazin-1-yl]-2-nitrobenzene], the IC50 (in the data set on rVSV-EBOV GP; in data set [1]) was 4.5 µM each time. Besides, the CC50 in the data set “in vitro” is over 200 µM.
For the compound `O=[N+]([O-])c1ccc(N2CCN(Cc3ccccc3)CC2)cc1NC(c1ccccc1)c1ccccc1` [MBX 3569, 1-(benzhydrylamino)-5-(4-benzylpiperazin-1-yl)-2-nitrobenzene], the figures for the IC50 (in the data set on rVSV-EBOV GP; in data set [1]) were over 25 µM and over 20 µM, respectively. Also, the CC50 in the data set “in vitro” was over 200 µM.
For `O=[N+]([O-])c1ccc(N2CCN(Cc3ccco3)CC2)cc1NC(c1ccccc1)c1ccccc1` [MBX 3575, 1-(benzhydrylamino)-5-[4-(furan-2-ylmethyl)piperazin-1-yl]-2-nitrobenzene], in that order: 1.7 µM, over 20 µM and over 200 µM.
For `O=[N+]([O-])c1ccc(N2CCN(Cc3cccs3)CC2)cc1NC(c1ccccc1)c1ccccc1` [MBX 3576, 1-(benzhydrylamino)-5-[4-(thiophen-2-ylmethyl)piperazin-1-yl]-2-nitrobenzene], in that order: 5.8 µM, over 20 µM and over 200 µM.
Take `O=[N+]([O-])c1ccc(N2CCN(Cc3ccsc3)CC2)cc1NC(c1ccccc1)c1ccccc1` [MBX 3577, 1-(benzhydrylamino)-5-[4-(thiophen-3-ylmethyl)piperazin-1-yl]-2-nitrobenzene]: the IC50 with rVSV-EBOV GP is 6.5 µM; in data set [1], over 20 µM. For the same compound, in the data set “in vitro”, the CC50 was over 200 µM.
For `O=[N+]([O-])c1ccc(N2CCN(C3CCCC3)CC2)cc1NC(c1ccccc1)c1ccccc1` [MBX 3580, 1-(benzhydrylamino)-5-(4-cyclopentylpiperazin-1-yl)-2-nitrobenzene], the IC50 in the data set with rVSV-EBOV GP was determined as 1.8 µM; in data set [1] it was 2.7 µM. This compound registered a CC50 in “in vitro” of over 100 µM.
The matching figures for `CN1CCN(c2ccnc(NC(c3ccccc3)c3ccccc3)c2)CC1` [MBX 3586, 2-(benzhydrylamino)-4-(4-methylpiperazin-1-yl)pyridine]: 7 µM, 2.6 µM and 70 µM.
The matching figures for `O=[N+]([O-])c1ccc(N2CCN(C3CCC3)CC2)cc1NC(c1ccccc1)c1ccccc1` [MBX 3589, 1-(benzhydrylamino)-5-[4-(cyclobutyl)piperazin-1-yl]-2-nitrobenzene]: 0.83 µM, 8 µM and over 200 µM.
With `COCCN1CCN(c2ccc([N+](=O)[O-])c(NC(c3ccccc3)c3ccccc3)c2)CC1` [MBX 3591, 1-(benzhydrylamino)-5-[4-(2-methoxyethyl)piperazin-1-yl]-2-nitrobenzene], the figures for the IC50 (in the data set with rVSV-EBOV GP; in data set [1]) were 1.6 µM and 1.4 µM, respectively. The same compound had a CC50 in the data set “in vitro” of over 100 µM.
On to `O=[N+]([O-])c1ccc(N2CCN(CCCO)CC2)cc1NC(c1ccccc1)c1ccccc1` [MBX 3610, 2-(benzhydrylamino)-4-[4-(3-hydroxypropyl)piperazin-1-yl]nitrobenzene], for which the IC50 (in the data set on rVSV-EBOV GP; in data set [1]) was 0.6 µM each time. This compound also showed a CC50 in the data set “in vitro” of 17 µM.
Consider `CC(C)(C)N1CCN(c2ccc([N+](=O)[O-])c(NC(c3ccccc3)c3ccccc3)c2)CC1` [MBX 3625, 2-benzhydrylamino-4-(4-tert-butylpiperazin-1-yl)nitrobenzene], for which the IC50 in the data set on rVSV-EBOV GP was found to be 0.85 µM; in data set [1], 0.78 µM. The compound also came in with a CC50 in “in vitro” of over 100 µM.
For `Cc1ccccc1C(Nc1cc(N2CCN(C)CC2)ccc1[N+](=O)[O-])c1ccccc1` (stereo not drawn) [MBX 3633, 2-[phenyl(o-tolyl)methylamino]-4-(4-methylpiperazin-1-yl)nitrobenzene], in that order: 1.5 µM, 1.3 µM and 15 µM.
For `Cc1cccc(C(Nc2cc(N3CCN(C)CC3)ccc2[N+](=O)[O-])c2ccccc2)c1` (stereo not drawn) [MBX 3634, 2-[phenyl(m-tolyl)methylamino]-4-(4-methylpiperazin-1-yl)nitrobenzene], the IC50 in the data set with rVSV-EBOV GP was 3.4 µM; in data set [1], 3 µM. The compound also displayed a CC50 in “in vitro” of over 100 µM.
For `CN1CCN(c2ccc([N+](=O)[O-])c(NC(c3ccccc3)c3cccc(Cl)c3)c2)CC1` (stereo not drawn) [MBX 3643, 2-[(3-chlorophenyl)(phenyl)methylamino]-4-(4-methylpiperazin-1-yl)nitrobenzene], in that order: 0.85 µM, over 20 µM and 21 µM.
As for `c1ccc(C(c2ccccc2)n2cnc3ccc(-c4cccnc4)cc32)cc1` [MBX 4294, 1-benzhydryl-6-(pyridin-3-yl)-1H-benzo[d]imidazole], the IC50 in the data set with rVSV-EBOV GP is 15.6 µM. In “in vitro”, this compound registered a CC50 of 59 µM.
On to `CN1CCN(c2ccc([N+](=O)[O-])c(NC3(c4ccccc4)CC3)c2)CC1` [MBX 4295, 5-(4-methylpiperazin-1-yl)-2-nitro-N-(1-phenylcyclopropyl)aniline], for which, in the data set on rVSV-EBOV GP, the IC50 stood at 16.2 µM. The CC50 in the data set “in vitro” amounted to 58 µM.
For `CN1CCN(c2ccc([N+](=O)[O-])c(NC3(c4ccccc4)CCCC3)c2)CC1` [MBX 4296, 5-(4-methylpiperazin-1-yl)-2-nitro-N-(1-phenylcyclopentyl)aniline], in that order: 5.89 µM and over 200 µM.
The matching figures for `CN1CCN(c2ccc([N+](=O)[O-])c(NC(=O)c3ccccc3)c2)CC1` [MBX 4328, N-[5-(4-methylpiperazin-1-yl)-2-nitrophenyl]benzamide]: 11.5 µM and 60 µM.
For `CCOC(=O)CC(Nc1cc(N2CCN(C)CC2)ccc1[N+](=O)[O-])c1ccccc1` (stereo not drawn) [MBX 4329, ethyl 3-((5-(4-methylpiperazin-1-yl)-2-nitrophenyl)amino)-3-phenylpropanoate], in that order: 10.4 µM and 45 µM.
As for `O=[N+]([O-])c1ccc(N2CCOCC2)cc1NC(c1ccccc1)c1ccccc1` [PPZ-10], the IC50 with rVSV-EBOV GP was found to be 5.5 µM. The compound also displayed a CC50 in “in vitro” of over 100 µM.
